{"source": "patent US12708630B2", "about": "“Combined therapy of 4′-thio-5-aza-2′-deoxycytidine and Venetoclax” (PINOTBIO, INC., priority 2021, dated 2026)", "assay_in_all_cases": "drug activity profiling cytotoxicity", "assay_type_in_all_cases": "cell-based", "key": {"[1]": {"system": "LS1034", "details": "Homo sapiens, LS-1034; LS1034 cell line, Colon; read-out: Aza-T-dCyd IC50", "outline": "(§1)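 Values come from a cytotoxicity profile of Aza-T-dCyd generated over a collection of 200 cancer cell lines.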"}, "[2]": {"system": "5637", "details": "5637 cell line, Bladder; read-out: Aza-T-dCyd IC50", "outline": "as §1"}, "[3]": {"system": "T98G", "details": "Homo sapiens; T98G cell line, CNS (Glioma); read-out: Aza-T-dCyd IC50", "outline": "as §1"}, "[4]": {"system": "A204", "details": "Homo sapiens; A204 cell line, Sarcoma; read-out: Aza-T-dCyd IC50", "outline": "as §1"}, "[5]": {"system": "SK-BR-3", "details": "Homo sapiens; SK-BR-3 cell line, Breast; read-out: Aza-T-dCyd IC50", "outline": "as §1"}, "[6]": {"system": "DMS53", "details": "Homo sapiens, DMS-53; DMS53 cell line, Lung (SCLC); read-out: Aza-T-dCyd IC50", "outline": "as §1"}, "[7]": {"system": "OE33", "details": "Homo sapiens; OE33 cell line, Head and Neck; read-out: Aza-T-dCyd IC50", "outline": "as §1"}, "[8]": {"system": "MOLT-16", "details": "Homo sapiens; MOLT-16 cell line, ALL; read-out: Aza-T-dCyd IC50", "outline": "as §1"}, "[9]": {"system": "Hs 729", "details": "Hs 729 cell line, Sarcoma; read-out: Aza-T-dCyd IC50", "outline": "as §1"}, "[10]": {"system": "BxPC-3", "details": "Homo sapiens; BxPC-3 cell line, Pancreas; read-out: Aza-T-dCyd IC50", "outline": "as §1"}, "[11]": {"system": "SJRH30", "details": "Homo sapiens; SJRH30 cell line, Sarcoma; read-out: Aza-T-dCyd IC50", "outline": "as §1"}, "[12]": {"system": "LS-174T", "details": "Homo sapiens, LS174T; LS-174T cell line, Colon; read-out: Aza-T-dCyd IC50", "outline": "as §1"}, "[13]": {"system": "HuP-T4", "details": "Homo sapiens; HuP-T4 cell line, Pancreas; read-out: Aza-T-dCyd IC50", "outline": "as §1"}, "[14]": {"system": "22Rv1", "details": "Homo sapiens; 22Rv1 cell line, Prostate; read-out: Aza-T-dCyd IC50", "outline": "as §1"}, "[15]": {"system": "Thp1", "details": "Homo sapiens, THP-1; Thp1 cell line, AML; read-out: Aza-T-dCyd IC50", "outline": "as §1"}, "[16]": {"system": "SK-NEP-1", "details": "Homo sapiens; SK-NEP-1 cell line, Kidney; read-out: Aza-T-dCyd IC50", "outline": "as §1"}, "[17]": {"system": "SW962", "details": "Homo sapiens, SW 962; SW962 cell line, Female GU (Vulva); read-out: Aza-T-dCyd IC50", "outline": "as §1"}, "[18]": {"system": "AU565", "details": "Homo sapiens; AU565 cell line, Breast; read-out: Aza-T-dCyd IC50", "outline": "as §1"}, "[19]": {"system": "MDA MB 468", "details": "Homo sapiens; MDA MB 468 cell line, Breast; read-out: Aza-T-dCyd IC50", "outline": "as §1"}, "[20]": {"system": "SK-N-FI", "details": "Homo sapiens; SK-N-FI cell line, CNS (Neuroblastoma); read-out: Aza-T-dCyd IC50", "outline": "as §1"}, "[21]": {"system": "SH-4", "details": "Homo sapiens; SH-4 cell line, Skin (Melanoma); read-out: Aza-T-dCyd IC50", "outline": "as §1"}, "[22]": {"system": "IM-9", "details": "Homo sapiens; IM-9 cell line, B-cell lymphoma; read-out: Aza-T-dCyd IC50", "outline": "as §1"}, "[23]": {"system": "A388", "details": "A388 cell line, Skin (Head and Neck); read-out: Aza-T-dCyd IC50", "outline": "as §1"}, "[24]": {"system": "SNB-19", "details": "Homo sapiens; SNB-19 cell line, CNS (Glioma); read-out: Aza-T-dCyd IC50", "outline": "as §1"}, "[25]": {"system": "SW1417", "details": "Homo sapiens; SW1417 cell line, Colon; read-out: Aza-T-dCyd IC50", "outline": "as §1"}, "[26]": {"system": "MES-SA", "details": "Homo sapiens; MES-SA cell line, Sarcoma; read-out: Aza-T-dCyd IC50", "outline": "as §1"}, "[27]": {"system": "A-704", "details": "Homo sapiens, A704; A-704 cell line, Kidney; read-out: Aza-T-dCyd IC50", "outline": "as §1"}, "[28]": {"system": "HT-1080", "details": "Homo sapiens; HT-1080 cell line, Sarcoma; read-out: Aza-T-dCyd IC50", "outline": "as §1"}, "[29]": {"system": "RS4; 11", "details": "Homo sapiens, 11 cell line, ALL, read-out: Aza-T-dCyd IC50", "outline": "as §1"}, "[30]": {"system": "MDA MB 415", "details": "Homo sapiens; MDA MB 415 cell line, Breast; read-out: Aza-T-dCyd IC50", "outline": "as §1"}, "[31]": {"system": "DMS273", "details": "Homo sapiens, DMS-273; DMS273 cell line, Lung (SCLC); read-out: Aza-T-dCyd IC50", "outline": "as §1"}}}
{"smiles": "Nc1ncn([C@H]2CC(O)[C@@H](CO)S2)c(=O)n1", "note": "(stereo partly shown) [Aza-T-dCyd, 4′-thio-5-aza-2′-deoxycytidine]", "values": [{"measurement": "IC50", "setting": "[1]", "value": 1.41, "unit": "µM"}, {"measurement": "IC50", "setting": "[2]", "value": 0.296, "unit": "µM"}, {"measurement": "IC50", "setting": "[3]", "value": 1.39, "unit": "µM"}, {"measurement": "IC50", "setting": "[4]", "value": 0.157, "unit": "µM"}, {"measurement": "IC50", "setting": "[5]", "value": 9.32, "unit": "µM"}, {"measurement": "IC50", "setting": "[6]", "value": 4.22, "unit": "µM"}, {"measurement": "IC50", "setting": "[7]", "value": 0.161, "unit": "µM"}, {"measurement": "IC50", "setting": "[8]", "value": 0.0182, "unit": "µM"}, {"measurement": "IC50", "setting": "[9]", "value": "> 10", "unit": "µM"}, {"measurement": "IC50", "setting": "[10]", "value": 0.699, "unit": "µM"}, {"measurement": "IC50", "setting": "[11]", "value": 0.291, "unit": "µM"}, {"measurement": "IC50", "setting": "[12]", "value": "> 10", "unit": "µM"}, {"measurement": "IC50", "setting": "[13]", "value": 0.321, "unit": "µM"}, {"measurement": "IC50", "setting": "[14]", "value": 2.71, "unit": "µM"}, {"measurement": "IC50", "setting": "[15]", "value": 5.12, "unit": "µM"}, {"measurement": "IC50", "setting": "[16]", "value": "> 10", "unit": "µM"}, {"measurement": "IC50", "setting": "[17]", "value": "> 10", "unit": "µM"}, {"measurement": "IC50", "setting": "[18]", "value": "> 10", "unit": "µM"}, {"measurement": "IC50", "setting": "[19]", "value": 1.34, "unit": "µM"}, {"measurement": "IC50", "setting": "[20]", "value": 2.71, "unit": "µM"}, {"measurement": "IC50", "setting": "[21]", "value": 0.698, "unit": "µM"}, {"measurement": "IC50", "setting": "[22]", "value": 1.05, "unit": "µM"}, {"measurement": "IC50", "setting": "[23]", "value": 0.19, "unit": "µM"}, {"measurement": "IC50", "setting": "[24]", "value": 0.17, "unit": "µM"}, {"measurement": "IC50", "setting": "[25]", "value": "> 10", "unit": "µM"}, {"measurement": "IC50", "setting": "[26]", "value": 0.135, "unit": "µM"}, {"measurement": "IC50", "setting": "[27]", "value": "> 10", "unit": "µM"}, {"measurement": "IC50", "setting": "[28]", "value": 0.12, "unit": "µM"}, {"measurement": "IC50", "setting": "[29]", "value": 0.0203, "unit": "µM"}, {"measurement": "IC50", "setting": "[30]", "value": "> 10", "unit": "µM"}, {"measurement": "IC50", "setting": "[31]", "value": 5.66, "unit": "µM"}]}
